# Reference: publication PMC12663368 (Nature Communications, 2025)
# Test system: Mpro-WT and Mpro-Δ23G 1:1 mixture
# Details: hamster, in vivo
structure (smiles),measurement,value
CC(C)(C)[C@H](NC(=O)C(F)(F)F)C(=O)N1C[C@H]2[C@@H]([C@H]1C(=O)N[C@H](C#N)C[C@@H]1CCNC1=O)C2(C)C [nirmatrelvir],Mpro-WT dominance,> 97%
